According to patent publication US7695731B2 (Cordis Corporation, priority 2004, dated 2010):

Key:
[1] = In vivo release kinetics of cladribine from PVDF/HFP coating on Bx Velocity stents (FIG. 61); conditions: PVDF/HFP 85/15 basecoat 1800 μg (30 % cladribine), 300 μg topcoat, Yorkshire pig
From the text: FIG. 61 is a graphical representation of the in vivo release kinetics of cladribine from a polymeric coating on Bx Velocity® stents, available from Cordis Corporation, implanted in a Yorkshire pig. The basecoat comprises an 85/15 ratio of PVDF and HFP and cladribine for a total combined weight of one thousand eight hundred micrograms (cladribine comprising thirty percent of the total weight). The topcoat comprises an 85/15 ratio of PVDF/HFP and no cladribine. The total weight of the topcoat is three hundred micrograms.

[2] = test system: human smooth muscle cells; assay: Cladribine Example, PDGF-stimulated proliferation of smooth muscle cells; type: cell-based
Protocol: (§1) To assess the ability of cladribine to prevent cell proliferation, human smooth muscle or endothelial cells (Clonetics, Walkersville, Md.) were seeded at a density of 2000 cells/cm^2 (approximately 3600 cells/well) into each well of 12-well plates and cultured with 1.5 ml of growth medium containing five percent fetal calf serum (FCS). After twenty-four hours, the growth medium was changed and fresh medium containing 10 ng/ml platelet-derived growth factor AB (PDGF AB; LIFE Technologies), as well as various concentrations of cladribine (0.001-10,000 nM) were added with triplicate wells. Medium was replaced with fresh cladribine-containing medium after three days. On day six, cells were detached by trypsinization to yield a cell suspension, lightly centrifuged to pellet and then counted manually using a Neubauer hemocytometer system. Cell viability was assessed by trypan blue exclusion.

[3] = test system: human coronary artery smooth muscle cells; assay: Anti-proliferative activity in non-synchronized cultured cells stimulated with two percent fetal bovine serum; type: cell-based; conditions: for effect of addition on the anti-proliferative rapamycin dose response curve: non-synchronized cells treated with rapamycin, two percent fetal bovine serum
From the text: The multiple curves represent various concentrations of mycophenolic acid ranging from zero to one thousand nanomolar concentrations.
The multiple curves represent various concentrations of cladribine ranging from zero to nine hundred nanomolar concentrations.

[4] = In vivo release kinetics from rapamycin/cladribine EVA/BMA basecoat, porcine pharmacokinetics studies (FIG. 62, 63); conditions: EVA/BMA basecoat with 200 μg BMA topcoat, Yorkshire pigs
From the text: (§2) The basecoat is applied to Bx Velocity® stents and implanted into Yorkshire pigs.
as §2

human endothelial cells = assay: Cladribine Example, PDGF-stimulated proliferation of endothelial cells; type: cell-based; conditions: EC, Cladribine 10.000 nM
Protocol: as §1

[5] = In vivo release kinetics from rapamycin/mycophenolic acid EVA/BMA basecoat, porcine pharmacokinetics studies (FIG. 53, 54); conditions: EVA/BMA basecoat 600 μg with 180 μg each drug, no or 100/200 μg BMA topcoat
[6] = test system: human coronary artery smooth muscle cell proliferation; assay: In vitro cell culture study, coronary artery smooth muscle cell proliferation (FIG. 51); type: cell-based
From the text: FIG. 51 is a graph of the inhibition of coronary artery smooth muscle cells by trichostatin A in a cell culture study.

[7] = test system: human coronary artery smooth muscle cells; assay: Anti-proliferative activity in synchronized cultured cells stimulated with two percent fetal bovine serum; conditions: synchronized cells treated with rapamycin
cell viability = assay: Cell viability assay; type: cell-based

With Nc1nc(Cl)nc2c1ncn2[C@H]1C[C@H](O)[C@@H](CO)O1 [Cladribine, 2-chlorodeoxyadenosine] the “in vivo elution from stent coating over time” value [1] was “after the first day, the elution of cladribine levels off significantly”, the “% of PDGF-stimulated increase in cell count” value ([2]; SMC, Cladribine 10.000 nM) was −4% and the “potency on smooth muscle cells relative to endothelial cells” value ([2]; from IC50 values 23 and 40 nanomolar) was “approximately twice as potent”. The “effect of addition on the anti-proliferative rapamycin dose response curve” value (shortened to “effect of addition”) [3] was “potentiate the anti-proliferative activity of rapamycin”, the “inhibition of human coronary artery smooth muscle cell proliferation” value ([3]; non-synchronized cells, two percent fetal bovine serum (FIG. 58)) was “completely inhibits” and the “in vivo elution from stent coating compared with rapamycin” value [4] was “elutes more rapidly than rapamycin”. For the same compound, the “% of PDGF-stimulated increase in cell count” value (human endothelial cells) was 10%.

In the case of COc1c(C)c2c(c(O)c1C/C=C(\C)CCC(=O)O)C(=O)OC2 [mycophenolic acid], the “effect of addition” value [3] is reported as “potentiates the anti-proliferative activity of rapamycin” and the “in vivo release from stent coating compared with rapamycin” value [5] is reported as “elutes more completely over a shorter duration than the rapamycin”.

With CC(/C=C/C(=O)NO)=C\[C@@H](C)C(=O)c1ccc(N(C)C)cc1 [trichostatin A] the “inhibition of human coronary artery smooth muscle cell proliferation” value [6] was “completely inhibit” and the IC50 ([6]; read-out: anti-proliferative IC50) was ~6 nM.

In the case of COc1cc([C@@H]2c3cc4c(cc3[C@@H](O[C@@H]3O[C@@H]5CO[C@@H](C)O[C@H]5[C@H](O)[C@H]3O)[C@H]3COC(=O)[C@H]23)OCO4)cc(OC)c1O [etoposide], the “effect of addition” value [7] is reported as “increases the percent inhibition of rapamycin alone”, the “effect of addition” value [3] is reported as “potentiate the anti-proliferative activity of rapamycin” and the “cytotoxicity in cell viability assay” value (cell viability; concentrations up to ten micromolar) is reported as “non-cytotoxic”.

For CC[C@@]1(O)C(=O)OCc2c1cc1n(c2=O)Cc2cc3c(CN(C)C)c(O)ccc3nc2-1 [topotecan], the “effect of addition” value [7] was “potentiate the anti-proliferative activity of rapamycin” and the “cytotoxicity in cell viability assay” value (cell viability; concentrations up to one micromolar) was “non-cytotoxic”.
